The values below come from ChEMBL document CHEMBL1135200, “Inhibition of the U1A-RNA complex by an aminoacridine derivative” (Bioorg Med Chem Lett, 2002).

Experiment [1] can be described thus: Ability to inhibit formation of the TatTAR complex by binding to the closing GC or CG base pair and adjacent nucleotides of loops in the TAR RNA.
Experiment [2] relates to Nucleic Acid. Kind of experiment: Ability to inhibit the formation of the U1A-stem loop 2 RNA complex using gel mobility shift assay. The class given is nucleic-acid assay.
Experiment [3] has as its system Nucleic Acid. Kind of experiment: Ability to inhibit the […]-RNA complex formation. The class given is nucleic-acid assay.

SMILES strings stand for the structures.

For `Nc1nc(N)c2c(N)c(N)ccc2n1`, the IC50 (usually the concentration that inhibits the measured activity by half) stood at 10 µM in experiment [1] and 10 mM in experiment [2].

For `COc1ccc2nc3cc(Cl)ccc3c(NCCCN(CCCN)CCCCN)c2c1`, the IC50 is 22 µM in experiment [1], 0.001 mM in experiment [2] and 1000 nM in experiment [3].
